The NIST ThermoML archive (doi:10.1021/acs.jced.5b00105)
Numbers after ± are expanded uncertainties.

Assay: xn = mol fraction of the nth substance listed
Settings: 100 kPa, Liquid; for mass density: Vibrating tube method; for viscosity: Concentric cylinders viscometry

## CCC1CCCCC1 [ethylcyclohexane] + CC(C)CC(C)(C)C
308.15 K, x1 = 0.1
  mass density: 688.43 ± 0.19 kg/m3
308.15 K, x1 = 0.2
  mass density: 697.49 ± 0.18 kg/m3
308.15 K, x1 = 0.3003
  mass density: 706.8 ± 0.18 kg/m3
308.15 K, x1 = 0.3997
  mass density: 716.14 ± 0.17 kg/m3
308.15 K, x1 = 0.5002
  mass density: 725.74 ± 0.17 kg/m3
308.15 K, x1 = 0.6005
  mass density: 735.47 ± 0.17 kg/m3
308.15 K, x1 = 0.7002
  mass density: 745.32 ± 0.16 kg/m3
308.15 K, x1 = 0.8003
  mass density: 755.35 ± 0.16 kg/m3
308.15 K, x1 = 0.8997
  mass density: 765.46 ± 0.15 kg/m3
308.15 K, x1 = 1
  mass density: 775.88 ± 0.15 kg/m3
313.15 K, x1 = 0.1
  viscosity: 0.446 ± 0.072 mPa·s
313.15 K, x1 = 0.2
  viscosity: 0.464 ± 0.074 mPa·s
313.15 K, x1 = 0.3003
  viscosity: 0.482 ± 0.077 mPa·s
313.15 K, x1 = 0.3997
  viscosity: 0.503 ± 0.081 mPa·s
313.15 K, x1 = 0.5002
  viscosity: 0.524 ± 0.084 mPa·s
313.15 K, x1 = 0.6005
  viscosity: 0.548 ± 0.088 mPa·s
313.15 K, x1 = 0.7002
  viscosity: 0.573 ± 0.092 mPa·s
313.15 K, x1 = 0.8003
  viscosity: 0.601 ± 0.096 mPa·s
313.15 K, x1 = 0.8997
  viscosity: 0.63 ± 0.1 mPa·s
313.15 K, x1 = 1
  viscosity: 0.663 ± 0.11 mPa·s
  mass density: 771.82 ± 0.15 kg/m3
313.15 K, x1 = 0.1012
  mass density: 684.26 ± 0.19 kg/m3
313.15 K, x1 = 0.2003
  mass density: 693.35 ± 0.18 kg/m3
313.15 K, x1 = 0.3001
  mass density: 702.64 ± 0.18 kg/m3
313.15 K, x1 = 0.4019
  mass density: 712.01 ± 0.18 kg/m3
313.15 K, x1 = 0.5008
  mass density: 721.61 ± 0.17 kg/m3
313.15 K, x1 = 0.6
  mass density: 731.36 ± 0.17 kg/m3
313.15 K, x1 = 0.6998
  mass density: 741.23 ± 0.16 kg/m3
313.15 K, x1 = 0.8
  mass density: 751.26 ± 0.16 kg/m3
313.15 K, x1 = 0.9
  mass density: 761.39 ± 0.16 kg/m3
318.15 K, x1 = 0.1
  viscosity: 0.429 ± 0.069 mPa·s
318.15 K, x1 = 0.2
  viscosity: 0.445 ± 0.071 mPa·s
318.15 K, x1 = 0.3003
  viscosity: 0.461 ± 0.074 mPa·s
318.15 K, x1 = 0.3997
  viscosity: 0.481 ± 0.077 mPa·s
318.15 K, x1 = 0.5002
  viscosity: 0.5 ± 0.08 mPa·s
318.15 K, x1 = 0.6005
  viscosity: 0.522 ± 0.084 mPa·s
318.15 K, x1 = 0.7002
  viscosity: 0.548 ± 0.088 mPa·s
318.15 K, x1 = 0.8003
  viscosity: 0.573 ± 0.092 mPa·s
318.15 K, x1 = 0.8997
  viscosity: 0.598 ± 0.096 mPa·s
318.15 K, x1 = 1
  viscosity: 0.628 ± 0.1 mPa·s
  mass density: 767.69 ± 0.15 kg/m3
318.15 K, x1 = 0.1012
  mass density: 680.05 ± 0.19 kg/m3
318.15 K, x1 = 0.2003
  mass density: 689.16 ± 0.19 kg/m3
318.15 K, x1 = 0.3001
  mass density: 698.38 ± 0.18 kg/m3
318.15 K, x1 = 0.4019
  mass density: 707.8 ± 0.18 kg/m3
318.15 K, x1 = 0.5008
  mass density: 717.38 ± 0.17 kg/m3
318.15 K, x1 = 0.6
  mass density: 727.09 ± 0.17 kg/m3
318.15 K, x1 = 0.6998
  mass density: 737.02 ± 0.16 kg/m3
318.15 K, x1 = 0.8
  mass density: 747.05 ± 0.16 kg/m3
318.15 K, x1 = 0.9
  mass density: 757.21 ± 0.16 kg/m3
323.15 K, x1 = 0.1
  viscosity: 0.412 ± 0.066 mPa·s
323.15 K, x1 = 0.2
  viscosity: 0.427 ± 0.068 mPa·s
323.15 K, x1 = 0.3003
  viscosity: 0.442 ± 0.071 mPa·s
323.15 K, x1 = 0.3997
  viscosity: 0.46 ± 0.074 mPa·s
323.15 K, x1 = 0.5002
  viscosity: 0.478 ± 0.077 mPa·s
323.15 K, x1 = 0.6005
  viscosity: 0.499 ± 0.08 mPa·s
323.15 K, x1 = 0.7002
  viscosity: 0.522 ± 0.084 mPa·s
323.15 K, x1 = 0.8003
  viscosity: 0.546 ± 0.088 mPa·s
323.15 K, x1 = 0.8997
  viscosity: 0.569 ± 0.091 mPa·s
323.15 K, x1 = 1
  viscosity: 0.597 ± 0.096 mPa·s
  mass density: 763.59 ± 0.15 kg/m3
323.15 K, x1 = 0.1012
  mass density: 675.82 ± 0.19 kg/m3
323.15 K, x1 = 0.2003
  mass density: 684.95 ± 0.19 kg/m3
323.15 K, x1 = 0.3001
  mass density: 694.19 ± 0.18 kg/m3
323.15 K, x1 = 0.4019
  mass density: 703.63 ± 0.18 kg/m3
323.15 K, x1 = 0.5008
  mass density: 713.22 ± 0.17 kg/m3
323.15 K, x1 = 0.6
  mass density: 722.95 ± 0.17 kg/m3
323.15 K, x1 = 0.6998
  mass density: 732.88 ± 0.16 kg/m3
323.15 K, x1 = 0.8
  mass density: 742.93 ± 0.16 kg/m3
323.15 K, x1 = 0.9
  mass density: 753.1 ± 0.16 kg/m3
333.15 K, x1 = 0.1
  viscosity: 0.383 ± 0.061 mPa·s
333.15 K, x1 = 0.2
  viscosity: 0.396 ± 0.064 mPa·s
333.15 K, x1 = 0.3003
  viscosity: 0.409 ± 0.066 mPa·s
333.15 K, x1 = 0.3997
  viscosity: 0.425 ± 0.068 mPa·s
333.15 K, x1 = 0.5002
  viscosity: 0.44 ± 0.071 mPa·s
333.15 K, x1 = 0.6005
  viscosity: 0.457 ± 0.073 mPa·s
333.15 K, x1 = 0.7002
  viscosity: 0.478 ± 0.077 mPa·s
333.15 K, x1 = 0.8003
  viscosity: 0.498 ± 0.08 mPa·s
333.15 K, x1 = 0.8997
  viscosity: 0.518 ± 0.083 mPa·s
333.15 K, x1 = 1
  viscosity: 0.541 ± 0.087 mPa·s
  mass density: 755.35 ± 0.15 kg/m3
333.15 K, x1 = 0.1012
  mass density: 667.27 ± 0.19 kg/m3
333.15 K, x1 = 0.2003
  mass density: 676.43 ± 0.19 kg/m3
333.15 K, x1 = 0.3001
  mass density: 685.73 ± 0.18 kg/m3
333.15 K, x1 = 0.4019
  mass density: 695.2 ± 0.18 kg/m3
333.15 K, x1 = 0.5008
  mass density: 704.82 ± 0.18 kg/m3
333.15 K, x1 = 0.6
  mass density: 714.58 ± 0.17 kg/m3
333.15 K, x1 = 0.6998
  mass density: 724.55 ± 0.17 kg/m3
333.15 K, x1 = 0.8
  mass density: 734.62 ± 0.16 kg/m3
333.15 K, x1 = 0.9
  mass density: 744.81 ± 0.16 kg/m3
343.15 K, x1 = 0.1
  viscosity: 0.358 ± 0.057 mPa·s
343.15 K, x1 = 0.2
  viscosity: 0.369 ± 0.059 mPa·s
343.15 K, x1 = 0.3003
  viscosity: 0.38 ± 0.061 mPa·s
343.15 K, x1 = 0.3997
  viscosity: 0.395 ± 0.063 mPa·s
343.15 K, x1 = 0.5002
  viscosity: 0.408 ± 0.065 mPa·s
343.15 K, x1 = 0.6005
  viscosity: 0.423 ± 0.068 mPa·s
343.15 K, x1 = 0.7002
  viscosity: 0.441 ± 0.071 mPa·s
343.15 K, x1 = 0.8003
  viscosity: 0.458 ± 0.073 mPa·s
343.15 K, x1 = 0.8997
  viscosity: 0.476 ± 0.076 mPa·s
343.15 K, x1 = 1
  viscosity: 0.496 ± 0.08 mPa·s
  mass density: 747.03 ± 0.16 kg/m3
343.15 K, x1 = 0.1012
  mass density: 658.57 ± 0.2 kg/m3
343.15 K, x1 = 0.2003
  mass density: 667.78 ± 0.19 kg/m3
343.15 K, x1 = 0.3001
  mass density: 677.13 ± 0.19 kg/m3
343.15 K, x1 = 0.4019
  mass density: 686.64 ± 0.18 kg/m3
343.15 K, x1 = 0.5008
  mass density: 696.31 ± 0.18 kg/m3
343.15 K, x1 = 0.6
  mass density: 706.12 ± 0.17 kg/m3
343.15 K, x1 = 0.6998
  mass density: 716.12 ± 0.17 kg/m3
343.15 K, x1 = 0.8
  mass density: 726.23 ± 0.17 kg/m3
343.15 K, x1 = 0.9
  mass density: 736.46 ± 0.16 kg/m3
